Results: patent publication US20260083126A1, “ANTIMICROBIAL COMPOSITIONS” (AHV International B.V., priority 2022, published 2026)
“Also recorded” adds a separate entry of the source.

Key:
[1] = solubility observed when preparing stock solutions; assay type: physicochemical; conditions: in water / medium; stock of 2 mM feasible with Tween80 and DMSO
Procedure: Hereafter, the stock solutions of the compounds were used in three repetitions in a minimal inhibitory concentration (MIC) assay at a 2-fold dilution range with various bacteria from the gram-positive and gram-negative group and a yeast, Candida albicans. The concentrations that show only less than 10% growth after 24 h were considered the MIC90-values, whereas the concentrations that show 50% growth after 24 h when compared to the bacterial growth control were considered the MIC50-values. Escherichia coli and Staphylococcus aureus were used as representatives for a gram-negative bacteria and gram-positive bacteria, respectively. Furthermore, the yeast C. albicans was also tested.
Conclusion and discussion. […] With the addition of solvents like Tween80 and DMSO a stock solution in medium of 2 mM was feasible. This allowed a maximum of testing concentration of 1 mM. […] Therefore, with the application of solvents a maximum testing concentration of 0.575 mM was possible. If the real growth-inhibiting concentration (MIC90) lies above these maximum assay concentrations, then it would not be detected in this assay.

[2] = system: AMR Staphylococcus aureus LUH14616 persisters; experiment: Anti-persister experiment, antibiotics-exposed mature biofilm; assay type: cell-based; conditions: after 3 days rifampicin and ciprofloxacin, 24 hrs exposure, FIG. 25
Procedure: Experimental design. The capacity of AM-2 (Bis(4-chlorophenyl) disulfide) and AM-8 to reduce bacterial counts in mature biofilms was assessed as described earlier (Scheper et al (2021) Scheper H, Wubbolts J M, Verhagen J A M, de Visser A W, van der Wal RJJP, Visser L G, de Boer M J G, and Nibbering P H. SAAP-148 eradicates MRSA persisters within mature biofilm models simulating prosthetic joint infection. Front. Microbiol. 12:625952. Doi: 10.3389/fmicb.2021.625952. eCollection 2021) with one modification, i.e., the biofilms were exposed daily to the compounds for up to 4 consecutive days. Briefly, antimicrobial resistant (AMR) Staphylococcus aureus LUH14616 were cultured to mid-log phase in tryptic soy broth (TSB; Oxoid Ltd, Basingstoke, UK) at 37° C. and 200 rpm, centrifuged for 10 min at 3,000 rpm and then resuspended in brain heart infusion broth (BHI; Oxoid Ltd, Basingstoke, UK). Next, approximately 1×10^7 CFU bacteria in BHI were cultured in a 96-well flat-bottom polystyrene microplate sealed with breathable seal for 7 days. […] To take possible slow-growing bacteria into account we analyzed the bacterial plates again after a week. Results are expressed as the number of surviving bacteria (CFU/ml).

[3] = system: Staphylococcus aureus LUH14616; experiment: Resistance development on repeated exposure (19 passages); assay type: cell-based
Procedure: Experimental design. Potential resistance to AM-8 was assessed as described by Habets and Brockhurst (2012) (Therapeutic antimicrobial peptides may compromise natural immunity. Biol Lett 8:416-418). Briefly, log phase bacteria (S. aureus LUH 14616) were diluted in RPMI-mod to a concentration of 2×10^6 CFU/ml. Next, 50 μl of this bacterial suspension were mixed with 50 μl of a range of dilutions of AM-8 or—as comparator-rifampicin in v-bottom 96-wells plates. Thereafter, the plates were covered with a plastic seal and incubated for 24 hrs at 37° C. in a shaking incubator (200 rpm). The plates were then centrifuged for 5 min at 2,000 rpm and the growth inhibition was determined. To start the resistance development testing, 100 μl of a mid-log bacterial suspension containing 2×10^6 CFU/ml were mixed with 150 μl of RPMI-mod and 5 μl of this diluted bacterial suspension were applied to v-bottom wells containing a dilution range of AM-8 or antibiotics (various concentrations below and above MIC) in RPMI-mod (RPMI 1640 modified with 20 mM Hepes and L-glutamine and without sodium bicarbonate (Sigma-Aldrich); further referred to as RPMI-mod). After 24 hrs at 37° C. in a shaking incubator (200 rpm) the growth inhibition was determined. 100 μl of the bacterial suspension from the 0.5×MIC wells were mixed with 150 μl of RPMI-mod and 5 μl of the diluted bacterial suspension were used to inoculate a new 96-wells plate containing a dilution series of AM-8 or rifampicin, and these mixtures were then incubated as described above. If resistance developed, the concentration range of AM-8 and/or antibiotic was adjusted accordingly. This was repeated 19 times. Results are expressed as the fold-increase in MIC compared to the MIC at the start of the experiment.

SMILES | solubility (observed) [1] | effect on persisters within antibiotics-exposed mature biofilm [2] | resistance development ([3]; 19 passages, listed as AM-8) | fold-increase in MIC compared to the MIC at the start ([3]; within 19 passages, two batches, seen occasionally) [fold]
Clc1ccc(SSc2ccc(Cl)cc2)cc1 [Bis (4-chlorophenyl) disulfide, Bis(4-chlorophenyl) disulfide] | low solubility | at the highest dose was effectively against persisters | – | –
CC(C)SS(=O)(=O)C(C)C [Di-isopropyl thiosulfonate] | – | – | no resistance development; also recorded: little/no resistance | ≤ 2
